Reference: EP4477653A1 (Perha Pharmaceuticals, priority 2023, dated 2024)
Like-named read-outs stand apart in the source and are kept apart here.

Tests used:
[1] = molecular target: T1, human recombinant A3AR (expressed in HEK-293 cells) (Homo sapiens, UniProt P0DMS8); assay: Adenosine receptors antagonism assay (Eurofins), [125I]-AB-MECA radioligand competition; type: binding
T1 construct: host or cells: HEK-293 cells
T1 sequence (P0DMS8 1-318): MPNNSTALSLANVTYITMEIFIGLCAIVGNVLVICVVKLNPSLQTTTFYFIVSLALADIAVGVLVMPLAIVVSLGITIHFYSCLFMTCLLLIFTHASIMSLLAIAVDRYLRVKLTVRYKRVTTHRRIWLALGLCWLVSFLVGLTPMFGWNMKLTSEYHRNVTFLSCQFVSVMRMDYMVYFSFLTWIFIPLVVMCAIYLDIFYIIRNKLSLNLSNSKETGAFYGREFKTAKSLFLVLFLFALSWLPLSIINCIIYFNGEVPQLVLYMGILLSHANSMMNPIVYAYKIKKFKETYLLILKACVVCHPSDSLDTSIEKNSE

[2] = Reversed-phase HPLC analysis of final compounds (stability under the analytical conditions); type: physicochemical
Experimental: Final compounds: Reversed-phase HPLC/MS analyses were carried out with a HPLC Ultimate 3000 (ThermoScientific) with an UV-DAD detector. Mass detection processing with direct infusion in mass detector (SQD2) from UPLC Acquity (Waters). Compounds (0.2 to 0.6 mg) were solubilized in a mixture of DMSO/H2O (1/1) and filtered on syringe filter 0.2 µm. • Acidic conditions: Thermo Scientific Syncronis C18 column, 150 x 4.6 mm, 5 µm. Flow rate: 1 mL/min. Gradient: (H2O + 0.1% HCOOH v/v)/(ACN + 0.1% HCOOH v/v) from 95/5 to 5/95 in 19.0 min. • Alkaline conditions: Thermo Scientific Syncronis C18 column, 150 × 4.6 mm, 5 µm or XTERRA RP18, 150×4.6mm, 3.5µm. Flow rate: 1 mL/min. Gradient: (HCOONH4 10mM + NH4OH 25% aq. to ajust pH = 10)/ACN from 95/5 to 5/95 in 19.0 min. Table 2: Spectroscopic and analytical characterization of compounds (1) to (220)

[3] = LogD (HPLC); type: physicochemical; conditions: by HPLC; Table 2
[4] = tested on: panel of 168 GPCRs; assay: PathHunter β-arrestin enzyme fragment complementation, agonist and antagonist mode; type: cell-based; conditions: figure 2
Experimental: […] In brief, when the GPCR is activated and β-Arrestin is recruited to the receptor, the two fragments of β-galactosidase complementation occurs, restoring β- galactosidase activity which is measured using chemiluminescent PathHunter® Detection Reagents. The tested compound can be evaluated as a potential agonist or, in the presnece of a specifi agonits of each GPCR, as a potential antagonist. Results are provided in reference to the assay performed in the absence of tested compound.
The results of an evaluation of the potential agonist or antagonist activity of compound (175) on 168 GPCRs are depicted in figure 2.

[5] = molecular target: T2, Human recombinant A3AR expressed in CHO cells (Homo sapiens, UniProt P0DMS8); assay: A3AR functional assay, cAMP levels measured by HTRF; type: cell-based
T2 construct: expressed in transfected cells; host or cells: CHO cells
T2 sequence (P0DMS8 1-318): T1 sequence (P0DMS8 1-318)
Experimental: Both assays were run for 20 min at 37°C, and cAMP levels measured by HTRF (homogeneous time resolved fluorescence) was used as an endpoint. The EC50 values (concentration producing a half-maximal response) and IC50 values (concentration causing a half-maximal inhibition of the control agonist response) were determined by non-linear regression analysis of the concentration-response curves generated with mean replicate values using Hill equation curve fitting.
An antagonistic activity in a radioligand assay can be due to competition to the same site by either an agonist or an antagonist (inhibitor). […] Assays were run for 20 min at 37°C and cAMP level measured by HTRF was used as an endpoint measure of the A3AR activity.

[6] = tested on: hair cells in isolated organs of Corti; assay: Otoprotective effects in ex vivo cultured organs of Corti, hair cells stained for myosine 7a; type: cell-based, mice; conditions: 24 hrs, compound 0.1-1 µM added 2 hrs before
Experimental: Organs of Corti were obtained from mice at the P0-P3 stage. Organs of Corti were cultured ex vivo for 24 h before addition of cisplatin (20 µM), gentamycin (100 µM) or neomycin (3 mM) with or without compound (175) (1 or 0.1 µM) added 2 hrs before the ototoxins. After 24 hrs incubation, outer and inner ciliated hair cells were stained with an antibody directed against myosine 7a.

[7] = [125I]-AB-MECA 0.15 nM, r.t., 120 min, IC50 from dose-response curves, read-out: Potency Class A3AR

| IC50 [1, 7] [nM] | chromatographic logD [3] | Structure (SMILES) | other results |
| --- | --- | --- | --- |
| 10 to 100 | 3.78 | CC(C)c1nnc2c(NCc3ccccc3)cc(NCCc3ccccc3)nn12 [compound 127, N8-benzyl-3-isopropyl-N6-(2-phenylethyl)-[1,2,4]triazolo[4,3-b]pyridazine-6,8-diamine] | – |
| 100 to 1000 | 3.68 | CC(C)c1nnc2c(NCc3ccccc3)cc(NCCOc3ccccc3)nn12 [compound 128, N8-benzyl-3-isopropyl-N6-(2-phenoxyethyl)-[1,2,4]triazolo[4,3-b]pyridazine-6,8-diamine] | – |
| 1 to 10 | 3.5 | CC(C)c1nnc2c(NCc3ccccc3)cc(NCc3ccccc3)nn12 [compound 130, N6,N8-dibenzyl-3-isopropyl-[1,2,4]triazolo[4,3-b]pyridazine-6,8-diamine] | – |
| 10 to 100 | 2.51 | CC(C)c1nnc2c(NCc3ccccc3)cc(NCc3ccccn3)nn12 [compound 131, N8-benzyl-3-isopropyl-N6-(2-pyridylmethyl)-[1,2,4]triazolo[4,3-b]pyridazine-6,8-diamine] | – |
| 10 to 100 | 2.36 | CC(C)c1nnc2c(NCc3ccccc3)cc(NCc3cccnc3)nn12 [compound 132, N8-benzyl-3-isopropyl-N6-(3-pyridylmethyl)-[1,2,4]triazolo[4,3-b]pyridazine-6,8-diamine] | – |
| 100 to 1000 | 2.36 | CC(C)c1nnc2c(NCc3ccccc3)cc(NCc3ccncc3)nn12 [compound 133, N8-benzyl-3-isopropyl-N6-(4-pyridylmethyl)-[1,2,4]triazolo[4,3-b]pyridazine-6,8-diamine] | – |
| 10 to 100 | 4.08 | CC(C)c1nnc2c(NCc3ccccc3)cc(NC3Cc4ccccc4C3)nn12 [compound 138, N8-benzyl-N6-indan-2-yl-3-isopropyl-[1,2,4]triazolo[4,3-b]pyridazine-6,8-diamine] | – |
| 100 to 1000 | 2.3 | Cc1cnc(CNc2cc(NCc3ccccc3)c3nnc(C(C)C)n3n2)cn1 [compound 139, N8-benzyl-3-isopropyl-N6-[(5-methylpyrazin-2-yl)methyl]-[1,2,4]triazolo[4,3-b]pyridazine-6,8-diamine] | – |
| 10 to 100 | 2.3 | CC(C)c1nnc2c(NCc3ccccc3)cc(NCc3cnn(C)c3)nn12 [compound 140, N8-benzyl-3-isopropyl-N6-[(1-methylpyrazol-4-yl)methyl]-[1,2,4]triazolo[4,3-b]pyridazine-6,8-diamine] | – |
| 100 to 1000 | 4.2 | Cc1cc(C)cc(CNc2cc(NCc3ccccc3)c3nnc(C(C)C)n3n2)c1 [compound 141, N8-benzyl-N6-[(3,5-dimethylphenyl)methyl]-3-isopropyl-[1,2,4]triazolo[4,3-b]pyridazine-6,8-diamine] | – |
| 100 to 1000 | 2.27 | CC(C)c1nnc2c(NCc3ccccc3)cc(Nc3nccn3C)nn12 [compound 144, N8-benzyl-3-isopropyl-N6-(1-methylimidazol-2-yl)-[1,2,4]triazolo[4,3-b]pyridazine-6,8-diamine] | – |

Further lines, the compound ahead of its results:

| Structure (SMILES) | IC50 [1, 7] [nM] | chromatographic logD [3] | other results |
| --- | --- | --- | --- |
| CSCCCNc1cc(NCc2ccccc2)c2nnc(C(C)C)n2n1 [compound 17, N8-benzyl-3-isopropyl-N6-(3-methylsulfanylpropyl)-[1,2,4]triazolo[4,3-b]pyridazine-6,8-diamine] | 10 to 100 | – | HPLC ([2]; Acidic conditions (H2O + 0.1% HCOOH / ACN + 0.1% HCOOH gradient)): Unstable ^a |
| CCC(CC)Nc1cc(NC(=O)Oc2ccccc2)c2nnc(C(C)C)n2n1 [compound 100, phenyl N-[6-(1-ethylpropylamino)-3-isopropyl-[1,2,4]triazolo[4,3-b]pyridazin-8-yl]carbamate] | – | – | IC50 [1]: 1 to 10 nM; HPLC ([2]; Alkaline conditions (HCOONH4 10mM + NH4OH, pH = 10 / ACN gradient)): Unstable ^b |
| CC(C)c1nnc2c(NCc3ccccc3)cc(NCC3CCCCC3)nn12 [compound 124, N8-benzyl-N6-(cyclohexylmethyl)-3-isopropyl-[1,2,4]triazolo[4,3-b]pyridazine-6,8-diamine] | 10 to 100 | 4.6 | – |
| CC(C)c1nnc2c(NCc3ccccc3)cc(NCC3CCOCC3)nn12 [compound 125, N8-benzyl-3-isopropyl-N6-(tetrahydropyran-4-ylmethyl)-[1,2,4]triazolo[4,3-b]pyridazine-6,8-diamine] | 100 to 1000 | 2.74 | – |
| CCC(CC)CNc1cc(NCc2ccccc2)c2nnc(C(C)C)n2n1 [compound 126, N8-benzyl-N6-(2-ethylbutyl)-3-isopropyl-[1,2,4]triazolo[4,3-b]pyridazine-6,8-diamine] | 1 to 10 | 4.42 | – |
| CC(C)c1nnc2c(NCc3ccccc3)cc(NCc3nccn3C)nn12 [compound 129, N8-benzyl-3-isopropyl-N6-[(1-methylimidazol-2-yl)methyl]-[1,2,4]triazolo[4,3-b]pyridazine-6,8-diamine] | 100 to 1000 | 1.95 | – |
| CC(C)c1nnc2c(NCc3ccccc3)cc(NCC3(C)CCCCC3)nn12 [compound 136] | – | 4.88 | IC50 ([1]; read-out: Potency Class A3AR, [125I]-AB-MECA 0.15 nM, r.t., 120 min, IC50 from dose-response curves): 10 to 100 nM |
| CC(C)c1nnc2c(NCc3ccccc3)cc(NC34CC5CC(CC(C5)C3)C4)nn12 [compound 137, N6-(1-adamantyl)-N8-benzyl-3-isopropyl-[1,2,4]triazolo[4,3-b]pyridazine-6,8-diamine] | 100 to 1000 | 5.02 | – |
| CSCCNc1cc(NCc2ccccc2)c2nnc(C(C)C)n2n1 [compound 143, N8-benzyl-3-isopropyl-N6-(2-methylsulfanylethyl)-[1,2,4]triazolo[4,3-b]pyridazine-6,8-diamine] | 10 to 100 | 3.07 | – |
| Cc1cc(C)nc(CNc2cc(NCc3ccccc3)c3nnc(C(C)C)n3n2)n1 [compound 145, N8-benzyl-N6-[(4,6-dimethylpyrimidin-2-yl)methyl]-3-isopropyl-[1,2,4]triazolo[4,3-b]pyridazine-6,8-diamine] | 100 to 1000 | 2.52 | – |
| CCC(CC)Nc1cc(Nc2cccnn2)c2nnc(C3CC3)n2n1 [compound 175, 3-cyclopropyl-N6-(pentan-3-yl)-N8-(pyridazin-3-yl)-[1,2,4]triazolo[4,3-b]pyridazine-6,8-diamine] | < 1 | – | selectivity towards ARs ([1]; A3AR compared to A1AR, A2AAR and A2BAR, figure 3): selective of A3AR; effect on all other GPCRs ([4]; agonist and antagonist mode, 0.1 µM compound): not or marginally impacted; inhibition of A3AR among 168 GPCRs ([4]; antagonist mode, GPCR exposed to its specific ligand and 0.1 µM compound): fully inhibited; agonist effect ([5]; absence of ligand, concentrations tested 1 nM to 3.3 µM, data not shown): no agonist effect was detected; inhibition of A3AR ([5]; antagonist mode, stimulation 10 nM IB-MECA, 20 min at 37°C, figure 4): ≥ 65%; mode of action on A3AR ([5]; figure 4): partial antagonist inhibitor; hair cell death induced by cisplatin ([6]; cisplatin 20 µM, figure 5A): prevented cell death; hair cell death induced by gentamycin ([6]; gentamycin 100 µM, figure 5B): prevented cell death; hair cell death induced by neomycin ([6]; neomycin 3 mM, figure 5C): prevented cell death |
